Reference: the NIST ThermoML archive (doi:10.1016/j.tca.2015.02.020)
± gives the expanded uncertainty stated by the source.

Experiment: molar heat capacity at constant pressure; xn = mol fraction of the nth substance listed
Conditions: 101 kPa, Small sample (50 mg) DSC

SMILES: NCCCO [3-amino-1-propanol] + O
- molar heat capacity at constant pressure (125.42 K, Glass, x1 = 0.19): 28.29 ± 5.8 J/K/mol
- molar heat capacity at constant pressure (125.42 K, Glass, x1 = 0.26): 32.2 ± 6.6 J/K/mol
- molar heat capacity at constant pressure (126.01 K, Glass, x1 = 0.68): 47.75 ± 2.3 J/K/mol
- molar heat capacity at constant pressure (126.94 K, Glass, x1 = 0.19): 29.15 ± 1.2 J/K/mol
- molar heat capacity at constant pressure (127.1 K, Glass, x1 = 0.26): 32.2 ± 1.3 J/K/mol
- molar heat capacity at constant pressure (127.56 K, Glass, x1 = 0.16): 28.24 ± 1.1 J/K/mol
- molar heat capacity at constant pressure (127.59 K, Glass, x1 = 0.16): 29.05 ± 5.7 J/K/mol
- molar heat capacity at constant pressure (128.06 K, Glass, x1 = 0.68): 51.16 ± 10 J/K/mol
- molar heat capacity at constant pressure (129.29 K, Glass, x1 = 0.19): 30.02 ± 6.1 J/K/mol
- molar heat capacity at constant pressure (130.07 K, Glass, x1 = 0.26): 33.19 ± 6.6 J/K/mol
- molar heat capacity at constant pressure (130.83 K, Glass, x1 = 0.16): 29.05 ± 1.4 J/K/mol
- molar heat capacity at constant pressure (130.83 K, Glass, x1 = 0.68): 52.29 ± 2.3 J/K/mol
- molar heat capacity at constant pressure (131.76 K, Glass, x1 = 0.19): 30.6 ± 1.4 J/K/mol
- molar heat capacity at constant pressure (131.92 K, Glass, x1 = 0.26): 33.19 ± 1.3 J/K/mol
- molar heat capacity at constant pressure (132.24 K, Glass, x1 = 0.16): 30.41 ± 6 J/K/mol
- molar heat capacity at constant pressure (132.71 K, Glass, x1 = 0.68): 52.86 ± 11 J/K/mol
- molar heat capacity at constant pressure (133.95 K, Glass, x1 = 0.19): 31.46 ± 6.3 J/K/mol
- molar heat capacity at constant pressure (134.1 K, Glass, x1 = 0.16): 30.14 ± 1.4 J/K/mol
- molar heat capacity at constant pressure (134.11 K, Glass, x1 = 0.68): 54 ± 2.3 J/K/mol
- molar heat capacity at constant pressure (134.74 K, Glass, x1 = 0.26): 34.17 ± 6.9 J/K/mol
- molar heat capacity at constant pressure (135.04 K, Glass, x1 = 0.19): 31.46 ± 1.4 J/K/mol
- molar heat capacity at constant pressure (135.2 K, Glass, x1 = 0.26): 33.85 ± 1.3 J/K/mol
- molar heat capacity at constant pressure (136.92 K, Glass, x1 = 0.16): 32.04 ± 6.5 J/K/mol
- molar heat capacity at constant pressure (137.39 K, Glass, x1 = 0.68): 54.57 ± 11 J/K/mol
- molar heat capacity at constant pressure (138.63 K, Glass, x1 = 0.19): 33.19 ± 6.6 J/K/mol
- molar heat capacity at constant pressure (139.41 K, Glass, x1 = 0.26): 35.49 ± 7.2 J/K/mol
- molar heat capacity at constant pressure (140.66 K, Glass, x1 = 0.16): 31.77 ± 1.4 J/K/mol
- molar heat capacity at constant pressure (140.66 K, Glass, x1 = 0.68): 56.27 ± 2.3 J/K/mol
- molar heat capacity at constant pressure (141.59 K, Glass, x1 = 0.16): 33.94 ± 6.8 J/K/mol
- molar heat capacity at constant pressure (141.6 K, Glass, x1 = 0.19): 33.48 ± 1.4 J/K/mol
- molar heat capacity at constant pressure (141.75 K, Glass, x1 = 0.26): 35.82 ± 1.6 J/K/mol
- molar heat capacity at constant pressure (142.07 K, Glass, x1 = 0.68): 56.27 ± 11 J/K/mol
- molar heat capacity at constant pressure (143.47 K, Glass, x1 = 0.19): 34.92 ± 6.9 J/K/mol
- molar heat capacity at constant pressure (143.95 K, Glass, x1 = 0.16): 32.58 ± 1.4 J/K/mol
- molar heat capacity at constant pressure (143.95 K, Glass, x1 = 0.68): 57.98 ± 2.3 J/K/mol
- molar heat capacity at constant pressure (144.1 K, Glass, x1 = 0.26): 36.47 ± 7.2 J/K/mol
- molar heat capacity at constant pressure (144.88 K, Glass, x1 = 0.19): 34.64 ± 1.4 J/K/mol
- molar heat capacity at constant pressure (145.04 K, Glass, x1 = 0.26): 36.8 ± 1.6 J/K/mol
- molar heat capacity at constant pressure (146.28 K, Glass, x1 = 0.16): 36.65 ± 7.3 J/K/mol
- molar heat capacity at constant pressure (146.75 K, Glass, x1 = 0.68): 56.84 ± 11 J/K/mol
- molar heat capacity at constant pressure (148.16 K, Glass, x1 = 0.19): 37.23 ± 7.5 J/K/mol
- molar heat capacity at constant pressure (148.79 K, Glass, x1 = 0.26): 39.1 ± 7.9 J/K/mol
- molar heat capacity at constant pressure (150.53 K, Glass, x1 = 0.16): 34.75 ± 1.4 J/K/mol
- molar heat capacity at constant pressure (150.53 K, Glass, x1 = 0.68): 60.25 ± 2.8 J/K/mol
- molar heat capacity at constant pressure (150.98 K, Glass, x1 = 0.16): 40.73 ± 8.1 J/K/mol
- molar heat capacity at constant pressure (151.45 K, Glass, x1 = 0.68): 57.98 ± 11 J/K/mol
- molar heat capacity at constant pressure (151.46 K, Glass, x1 = 0.19): 36.94 ± 1.4 J/K/mol
- molar heat capacity at constant pressure (151.62 K, Glass, x1 = 0.26): 39.1 ± 1.6 J/K/mol
- molar heat capacity at constant pressure (152.86 K, Glass, x1 = 0.19): 40.99 ± 8.4 J/K/mol
- molar heat capacity at constant pressure (153.81 K, Glass, x1 = 0.16): 36.65 ± 1.6 J/K/mol
- molar heat capacity at constant pressure (153.82 K, Glass, x1 = 0.68): 61.96 ± 2.8 J/K/mol
- molar heat capacity at constant pressure (154.75 K, Glass, x1 = 0.19): 38.39 ± 1.7 J/K/mol
- molar heat capacity at constant pressure (154.91 K, Glass, x1 = 0.26): 40.42 ± 1.6 J/K/mol
- molar heat capacity at constant pressure (156.15 K, Glass, x1 = 0.68): 60.25 ± 12 J/K/mol
- molar heat capacity at constant pressure (160.4 K, Glass, x1 = 0.68): 65.37 ± 2.8 J/K/mol
- molar heat capacity at constant pressure (161.49 K, Glass, x1 = 0.26): 45.02 ± 2 J/K/mol
- molar heat capacity at constant pressure (163.69 K, Glass, x1 = 0.68): 67.64 ± 2.8 J/K/mol
- molar heat capacity at constant pressure (165.08 K, Liquid, x1 = 0.16): 65.7 ± 13 J/K/mol
- molar heat capacity at constant pressure (166.96 K, Liquid, x1 = 0.19): 68.12 ± 14 J/K/mol
- molar heat capacity at constant pressure (169.79 K, Liquid, x1 = 0.16): 66.79 ± 13 J/K/mol
- molar heat capacity at constant pressure (170.28 K, Liquid, x1 = 0.16): 66.25 ± 2.7 J/K/mol
- molar heat capacity at constant pressure (171.23 K, Liquid, x1 = 0.19): 71.87 ± 3.2 J/K/mol
- molar heat capacity at constant pressure (171.67 K, Liquid, x1 = 0.19): 69.27 ± 14 J/K/mol
- molar heat capacity at constant pressure (173.58 K, Liquid, x1 = 0.16): 66.79 ± 2.7 J/K/mol
- molar heat capacity at constant pressure (174.5 K, Liquid, x1 = 0.16): 67.06 ± 14 J/K/mol
- molar heat capacity at constant pressure (174.5 K, Liquid, x1 = 0.26): 77.55 ± 15 J/K/mol
- molar heat capacity at constant pressure (174.53 K, Liquid, x1 = 0.19): 71.87 ± 3.2 J/K/mol
- molar heat capacity at constant pressure (174.68 K, Liquid, x1 = 0.26): 82.48 ± 3.6 J/K/mol
- molar heat capacity at constant pressure (176.39 K, Liquid, x1 = 0.19): 69.56 ± 14 J/K/mol
- molar heat capacity at constant pressure (179.21 K, Liquid, x1 = 0.16): 67.6 ± 14 J/K/mol
- molar heat capacity at constant pressure (179.21 K, Liquid, x1 = 0.26): 77.88 ± 16 J/K/mol
- molar heat capacity at constant pressure (179.69 K, Liquid, x1 = 0.68): 127.32 ± 26 J/K/mol
- molar heat capacity at constant pressure (180.18 K, Liquid, x1 = 0.16): 67.88 ± 3 J/K/mol
- molar heat capacity at constant pressure (180.19 K, Liquid, x1 = 0.68): 138.69 ± 5.7 J/K/mol
- molar heat capacity at constant pressure (181.09 K, Liquid, x1 = 0.19): 69.85 ± 14 J/K/mol
- molar heat capacity at constant pressure (181.12 K, Liquid, x1 = 0.19): 72.74 ± 3.2 J/K/mol
- molar heat capacity at constant pressure (181.28 K, Liquid, x1 = 0.26): 82.81 ± 3.6 J/K/mol
- molar heat capacity at constant pressure (183.49 K, Liquid, x1 = 0.16): 68.69 ± 3 J/K/mol
- molar heat capacity at constant pressure (183.49 K, Liquid, x1 = 0.68): 138.69 ± 5.7 J/K/mol
- molar heat capacity at constant pressure (183.93 K, Liquid, x1 = 0.16): 68.42 ± 14 J/K/mol
- molar heat capacity at constant pressure (183.93 K, Liquid, x1 = 0.26): 78.21 ± 16 J/K/mol
- molar heat capacity at constant pressure (184.41 K, Liquid, x1 = 0.68): 127.32 ± 26 J/K/mol
- molar heat capacity at constant pressure (184.43 K, Liquid, x1 = 0.19): 73.31 ± 3.2 J/K/mol
- molar heat capacity at constant pressure (184.59 K, Liquid, x1 = 0.26): 83.14 ± 3.6 J/K/mol
- molar heat capacity at constant pressure (185.82 K, Liquid, x1 = 0.19): 70.43 ± 14 J/K/mol
- molar heat capacity at constant pressure (188.65 K, Liquid, x1 = 0.16): 69.5 ± 14 J/K/mol
- molar heat capacity at constant pressure (188.65 K, Liquid, x1 = 0.26): 78.86 ± 16 J/K/mol
- molar heat capacity at constant pressure (189.12 K, Liquid, x1 = 0.68): 127.32 ± 26 J/K/mol
- molar heat capacity at constant pressure (190.09 K, Liquid, x1 = 0.16): 70.05 ± 3 J/K/mol
- molar heat capacity at constant pressure (190.1 K, Liquid, x1 = 0.68): 139.26 ± 5.7 J/K/mol
- molar heat capacity at constant pressure (190.54 K, Liquid, x1 = 0.19): 71.29 ± 14 J/K/mol
- molar heat capacity at constant pressure (191.04 K, Liquid, x1 = 0.19): 75.04 ± 3.2 J/K/mol
- molar heat capacity at constant pressure (191.2 K, Liquid, x1 = 0.26): 84.12 ± 3.6 J/K/mol
- molar heat capacity at constant pressure (193.38 K, Liquid, x1 = 0.16): 70.32 ± 14 J/K/mol
- molar heat capacity at constant pressure (193.38 K, Liquid, x1 = 0.26): 79.52 ± 16 J/K/mol
- molar heat capacity at constant pressure (193.4 K, Liquid, x1 = 0.16): 70.05 ± 3 J/K/mol
- molar heat capacity at constant pressure (193.41 K, Liquid, x1 = 0.68): 139.83 ± 5.7 J/K/mol
- molar heat capacity at constant pressure (193.85 K, Liquid, x1 = 0.68): 127.32 ± 26 J/K/mol
- molar heat capacity at constant pressure (194.35 K, Liquid, x1 = 0.19): 75.62 ± 3.2 J/K/mol
- molar heat capacity at constant pressure (194.51 K, Liquid, x1 = 0.26): 84.78 ± 3.6 J/K/mol
- molar heat capacity at constant pressure (195.27 K, Liquid, x1 = 0.19): 71.87 ± 14 J/K/mol
- molar heat capacity at constant pressure (198.1 K, Liquid, x1 = 0.16): 71.41 ± 14 J/K/mol
- molar heat capacity at constant pressure (198.1 K, Liquid, x1 = 0.26): 79.85 ± 16 J/K/mol
- molar heat capacity at constant pressure (198.58 K, Liquid, x1 = 0.68): 127.89 ± 26 J/K/mol
- molar heat capacity at constant pressure (199.99 K, Liquid, x1 = 0.19): 73.02 ± 15 J/K/mol
- molar heat capacity at constant pressure (200.03 K, Liquid, x1 = 0.68): 140.96 ± 6.3 J/K/mol
- molar heat capacity at constant pressure (200.98 K, Liquid, x1 = 0.19): 77.06 ± 3.2 J/K/mol
- molar heat capacity at constant pressure (201.13 K, Liquid, x1 = 0.26): 86.42 ± 3.6 J/K/mol
- molar heat capacity at constant pressure (202.83 K, Liquid, x1 = 0.16): 72.49 ± 15 J/K/mol
- molar heat capacity at constant pressure (202.84 K, Liquid, x1 = 0.26): 80.84 ± 16 J/K/mol
- molar heat capacity at constant pressure (203.31 K, Liquid, x1 = 0.68): 129.03 ± 26 J/K/mol
- molar heat capacity at constant pressure (203.35 K, Liquid, x1 = 0.68): 141.53 ± 6.3 J/K/mol
- molar heat capacity at constant pressure (204.28 K, Liquid, x1 = 0.19): 77.64 ± 3.2 J/K/mol
- molar heat capacity at constant pressure (204.44 K, Liquid, x1 = 0.26): 86.75 ± 3.6 J/K/mol
- molar heat capacity at constant pressure (204.72 K, Liquid, x1 = 0.19): 73.89 ± 15 J/K/mol
